US20220411367A1, “ARYLMETHYLENE HETEROCYCLIC COMPOUNDS AS KV1.3 POTASSIUM SHAKER CHANNEL BLOCKERS” (D. E. Shaw Research, LLC, priority 2019, published 2022)
Where two headings read alike, the source gives them in different places.

Legend:
[1] = target: T1, Kv1.3 potassium channel (Homo sapiens, UniProt P22001); assay: Kv1.3 potassium channel blocker activity, automated whole-cell patch clamp (Patchliner); type: cell-based; conditions: CHO-K1 cells stably expressing Kv1.3; whole cell current inhibition; read-out: Kvl.3 IC50
T1 construct: expressed in transfected cells
T1 sequence (P22001 whole entry): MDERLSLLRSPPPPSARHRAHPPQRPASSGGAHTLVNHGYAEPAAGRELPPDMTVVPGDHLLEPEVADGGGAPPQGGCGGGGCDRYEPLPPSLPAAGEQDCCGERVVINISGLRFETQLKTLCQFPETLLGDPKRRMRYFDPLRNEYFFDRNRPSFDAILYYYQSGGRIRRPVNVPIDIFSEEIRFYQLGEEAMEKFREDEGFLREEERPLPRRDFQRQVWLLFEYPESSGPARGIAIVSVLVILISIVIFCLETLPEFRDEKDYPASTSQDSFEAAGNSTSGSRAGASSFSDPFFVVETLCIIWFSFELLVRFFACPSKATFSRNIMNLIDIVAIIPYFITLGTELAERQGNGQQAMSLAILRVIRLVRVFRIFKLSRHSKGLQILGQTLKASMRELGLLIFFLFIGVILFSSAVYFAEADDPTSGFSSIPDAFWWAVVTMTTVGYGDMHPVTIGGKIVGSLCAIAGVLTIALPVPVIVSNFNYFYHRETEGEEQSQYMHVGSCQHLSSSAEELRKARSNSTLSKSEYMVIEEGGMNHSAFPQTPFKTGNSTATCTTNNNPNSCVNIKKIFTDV
Method: This assay is used to evaluate the disclosed compounds' activities as Kv1.3 potassium channel blockers.
CHO-K1 cells stably expressing Kv1.3 were grown in DMEM containing 10% heat-inactivated FBS, 1 mM Sodium Pyruvate, 2 mM L-Glutamine and G418 (500 μg/ml).
(§1) All compounds were dissolved in DMSO at 30 mM.
The currents were evoked by applying 100 ms depolarizing pulses from −90 mV (holding potential) to +40 mV were applied with 0.1 Hz frequency. […] 10 second breaks were used between pulse trains (see Table A below).
Data were sampled at 10 kHz without filtering. Passive leak currents were subtracted online using a P/4 procedure (HEKA Elektronik Dr. Schulze GmbH). […] Total compound incubation time before the next pulse train was not longer than 10 seconds. Peak current inhibition was observed during compound equilibration.

[2] = target: T2, hERG channel (Homo sapiens, UniProt Q12809); assay: hERG electrophysiology, automated whole-cell patch clamp (Patchliner); type: cell-based
T2 construct: expressed in transfected cells
T2 sequence (Q12809 whole entry): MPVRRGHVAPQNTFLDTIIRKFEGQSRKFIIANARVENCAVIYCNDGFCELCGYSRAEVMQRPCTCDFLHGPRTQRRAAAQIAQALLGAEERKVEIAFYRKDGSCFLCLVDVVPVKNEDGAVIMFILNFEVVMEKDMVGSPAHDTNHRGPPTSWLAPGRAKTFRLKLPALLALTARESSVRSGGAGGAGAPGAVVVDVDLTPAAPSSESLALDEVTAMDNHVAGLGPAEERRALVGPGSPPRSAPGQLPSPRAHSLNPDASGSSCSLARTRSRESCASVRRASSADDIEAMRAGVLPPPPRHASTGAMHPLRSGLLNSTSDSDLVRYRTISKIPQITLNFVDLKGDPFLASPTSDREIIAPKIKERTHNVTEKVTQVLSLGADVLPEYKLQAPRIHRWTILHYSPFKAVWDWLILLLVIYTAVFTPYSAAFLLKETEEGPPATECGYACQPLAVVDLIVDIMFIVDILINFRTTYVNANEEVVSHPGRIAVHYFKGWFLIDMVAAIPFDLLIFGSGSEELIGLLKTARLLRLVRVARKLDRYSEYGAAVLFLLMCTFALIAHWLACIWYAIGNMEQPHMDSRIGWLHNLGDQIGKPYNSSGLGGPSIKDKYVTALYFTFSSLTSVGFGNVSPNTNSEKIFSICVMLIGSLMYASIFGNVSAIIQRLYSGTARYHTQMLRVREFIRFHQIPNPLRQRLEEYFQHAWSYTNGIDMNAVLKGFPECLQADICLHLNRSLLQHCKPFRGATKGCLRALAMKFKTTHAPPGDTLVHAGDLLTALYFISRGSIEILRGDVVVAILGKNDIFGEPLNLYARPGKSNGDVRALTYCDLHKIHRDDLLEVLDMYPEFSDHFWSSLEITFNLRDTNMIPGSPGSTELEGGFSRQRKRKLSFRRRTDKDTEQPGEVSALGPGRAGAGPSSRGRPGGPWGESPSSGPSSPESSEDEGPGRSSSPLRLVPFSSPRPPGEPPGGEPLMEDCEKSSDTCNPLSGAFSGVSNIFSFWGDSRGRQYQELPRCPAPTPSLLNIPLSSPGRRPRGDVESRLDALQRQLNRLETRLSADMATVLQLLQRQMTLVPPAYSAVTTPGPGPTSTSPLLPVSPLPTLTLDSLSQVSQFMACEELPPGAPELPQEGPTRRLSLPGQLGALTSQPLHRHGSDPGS
Method: as §1
The pulse frequency was 0.3 Hz.
Data were sampled at 10 kHz without filtering.

[3] = CHO-K1 cells stably expressing hERG, whole cell current inhibition, read-out: hERG IC50

Row | Structure (SMILES) | IC50 [1] | IC50 [2, 3] | IC50 [2]
1 | CC(C)CC(c1cc(Cl)c(Cl)cc1O)N1CCC(CO)CC1 (stereo not drawn) [Compound 23, 4,5-dichloro-2-[1-[4-(hydroxymethyl)piperidin-1-yl]-3-methylbutyl]phenol] | < 10 µM | – | –
2 | Oc1cc(Cl)c(Cl)cc1CN1CCC(C2CCOCC2)CC1 [Compound 20, 4,5-dichloro-2-[[4-(oxan-4-yl)piperidin-1-yl]methyl]phenol] | < 1 µM | < 30 µM | –
3 | OCC1CCCN(Cc2cc(Cl)c(Cl)cc2O)CC1 (stereo not drawn) [Compound 27, 4,5-dichloro-2-[[4-(hydroxymethyl)azepan-1-yl]methyl]phenol] | < 1 µM | < 30 µM | –
4 | C[C@H]1C[C@@H](CO)CCN1Cc1cc(Cl)c(Cl)cc1O (relative stereo) [Compound 29, 4,5-dichloro-2-(((2S,4S)-rel-4-(hydroxymethyl)-2-methylpiperidin-1-yl)methyl)phenol] | < 1 µM | < 30 µM | –
5 | OCC1CCCCN1Cc1cc(Cl)c(Cl)cc1O (stereo not drawn) [Compound 34, 4,5-dichloro-2-[[2-(hydroxymethyl)piperidin-1-yl]methyl]phenol] | < 10 µM | – | –
6 | Oc1cc(Cl)c(Cl)cc1CN1CCC(O)(O)CC1 [Compound 37, 1-(4,5-dichloro-2-hydroxybenzyl)piperidine-4,4-diol trifluoroacetic acid] | < 10 µM | – | –
7 | Oc1cc(Cl)c(Cl)cc1CN1CCC2(CC1)COCC2O (stereo not drawn) [Compound 40] | < 1 µM | – | < 30 µM
8 | O=C(NCC1(CO)CCN(Cc2cc(Cl)c(Cl)cc2O)CC1)C(F)(F)F [Compound 13, N-([1-[(4,5-dichloro-2-hydroxyphenyl)methyl]-4-(hydroxymethyl)piperidin-4-yl]methyl)-2,2,2-trifluoroacetamide] | < 1 µM | – | –
9 | C[C@@H]1C[C@@H](CO)CCN1Cc1cc(Cl)c(Cl)cc1O (relative stereo) [Compound 24, 4,5-dichloro-2-(((2R,4S)-rel-4-(hydroxymethyl)-2-methylpiperidin-1-yl)methyl)phenol] | < 10 µM | – | –
10 | NCC1(CO)CCN(Cc2cc(Cl)c(Cl)cc2O)CC1 [Compound 5, 2-[[4-(aminomethyl)-4-(hydroxymethyl)piperidin-1-yl]methyl]-4,5-dichlorophenol] | < 1 µM | < 30 µM | –
11 | OCC1CCN(C(CO)c2cc(Cl)c(Cl)cc2O)CC1 (stereo not drawn) [Compound 15, 4,5-dichloro-2-[2-hydroxy-1-[4-(hydroxymethyl)piperidin-1-yl]ethyl]phenol] | < 10 µM | – | –
12 | CC(=O)NCC1(O)CCN(Cc2cc(Cl)c(Cl)cc2O)CC1 [Compound 8, N-([1-[(4,5-dichloro-2-hydroxyphenyl)methyl]-4-hydroxypiperidin-4-yl]methyl)acetamide] | < 10 µM | – | –
13 | OCC1(F)CCN(Cc2cc(Cl)c(Cl)cc2O)CC1 [Compound 31, 4,5-dichloro-2-[[4-fluoro-4-(hydroxymethyl)piperidin-l-yl]methyl]phenol] | < 10 µM | – | –
14 | O=C(O)CC1CCN(Cc2cc(Cl)c(Cl)cc2O)CC1 [Compound 28, 2-(1-(4,5-dichloro-2-hydroxybenzyl)piperidin-4-yl)acetic acid] | < 10 µM | – | –
15 | OCC1CCN(Cc2cc(Cl)c(Cl)cc2O)C(CO)C1 (stereo not drawn) [Compound 2, (1-(4,5-dichloro-2-hydroxybenzyl)piperidine-2,4-diyl)dimethanol] | < 10 µM | – | –
16 | Oc1cc(Cl)c(Cl)cc1CN1CCC(c2ccn[nH]2)CC1 [Compound 30, 2-((4-(1H-pyrazol-5-yl)piperidin-1-yl)methyl)-4,5-dichlorophenol] | < 10 µM | < 30 µM | –
17 | O=C1CCOC12CCN(Cc1cc(Cl)c(Cl)cc1O)CC2 [Compound 33, 8-[(4,5-dichloro-2-hydroxyphenyl)methyl]-1-oxa-8-azaspiro[4.5]decan-4-one] | < 10 µM | – | –
18 | Oc1cc(Cl)c(Cl)cc1CN1CCC(n2cnnc2)CC1 [Compound 38, 4,5-dichloro-2-[[4-(4H-1,2,4-triazol-4-yl)piperidin-1-yl]methyl]phenol] | < 10 µM | – | –
19 | OC[C@@H]1CCN(Cc2cc(Cl)c(Cl)cc2O)[C@H](c2ccccc2)C1 (relative stereo) [Compound 10, 4,5-dichloro-2-(((2S,4R)-rel-4-(hydroxymethyl)-2-phenylpiperidin-1-yl)methyl)phenol] | < 10 µM | – | –
20 | O=C(N1CCCC1)C1(CO)CCN(Cc2cc(Cl)c(Cl)cc2O)CC1 [Compound 6, 4,5-dichloro-2-[[4-(hydroxymethyl)-4-[(pyrrolidin-1-yl)carbonyl]piperidin-1-yl]methyl]phenol] | < 10 µM | – | –
21 | C=CC(=O)NCC1(CO)CCN(Cc2cc(Cl)c(Cl)cc2O)CC1 [Compound 7, N-([1-[(4,5-dichloro-2-hydroxyphenyl)methyl]-4-(hydroxymethyl)piperidin-4-yl]methyl)prop-2-enamide] | < 1 µM | – | –
22 | NCC(c1cc(Cl)c(Cl)cc1O)N1CCC(CO)CC1 (stereo not drawn) [Compound 4, 2-[2-amino-1-[4-(hydroxymethyl)piperidin-1-yl]ethyl]-4,5-dichlorophenol] | < 10 µM | – | –
23 | COC(=O)C1CC(CO)CCN1Cc1cc(Cl)c(Cl)cc1O (stereo not drawn) [Compound 1, methyl 1-[(4,5-dichloro-2-hydroxyphenyl)methyl]-4-(hydroxymethyl)piperidine-2-carboxylate] | < 10 µM | – | –
24 | OC[C@@H]1CCN(Cc2cc(Cl)c(Cl)cc2O)[C@@H](c2ccccc2)C1 (relative stereo) [Compound 11, 4,5-dichloro-2-(((2R,4R)-rel-4-(hydroxymethyl)-2-phenylpiperidin-1-yl)methyl)phenol] | < 10 µM | – | –
25 | Oc1cc(Cl)c(Cl)cc1CN1CCC2(CC1)OCCO2 [Compound 35, 4,5-dichloro-2-[1,4-dioxa-8-azaspiro[4.5]decan-8-ylmethyl]phenol trifluoroacetic acid] | < 10 µM | – | –
26 | OC[C@@H]1[C@H]2CN(Cc3cc(Cl)c(Cl)cc3O)C[C@@H]12 [Compound 36, 4,5-dichloro-2-(((1R,5S,6R)-6-(hydroxymethyl)-3-azabicyclo[3.1.0]hexan-3-yl)methyl)phenol] | < 10 µM | – | –
27 | Cc1cc(CN2CCC(CO)CC2)c(O)cc1Cl [Compound 17, 5-chloro-2-[[4-(hydroxymethyl)piperidin-1-yl]methyl]-4-methylphenol] | < 10 µM | – | –
28 | Cc1cc(O)c(CN2CCC(CO)CC2)cc1C [Compound 16, 2-[[4-(hydroxymethyl)piperidin-1-yl]methyl]-4,5-dimethylphenol] | < 10 µM | – | –

Further lines, with some results ahead:

Row | IC50 [1] | Structure (SMILES) | IC50 [2, 3] | IC50 [2]
29 | < 10 µM | OCCC1CCN(Cc2cc(Cl)c(Cl)cc2O)CC1 [Compound 39, 4,5-dichloro-2-((4-(2-hydroxyethyl)piperidin-1-yl)methyl)phenol] | < 30 µM | –
30 | < 10 µM | CC(=O)N1CCN(Cc2cc(Cl)c(Cl)cc2O)CC1 [Compound 49, 1-[4-[(4,5-dichloro-2-hydroxyphenyl)methyl]piperazin-1-yl]ethan-1-one] | < 30 µM | –
31 | < 10 µM | OCC1CCCN(Cc2cc(Cl)c(Cl)cc2O)C1 (stereo not drawn) [Compound 45, 4,5-dichloro-2-[[3-(hydroxymethyl)piperidin-1-yl]methyl]phenol] | < 30 µM | –
32 | < 10 µM | OCC1CCN(Cc2cc(Cl)c(Cl)cc2O)C1 (stereo not drawn) [Compound 44, 4,5-dichloro-2-[[3-(hydroxymethyl)pyrrolidin-1-yl]methyl]phenol] | < 30 µM | –
33 | < 10 µM | Oc1cc(Cl)c(Cl)cc1CN1CCn2cnnc2C1 [Compound 43, 4,5-dichloro-2-[5H,6H,7H,8H-[1,2,4]triazolo[4,3-a]pyrazin-7-ylmethyl]phenol] | – | –
34 | < 10 µM | OCC1(O)CCN(Cc2cc(Cl)c(Cl)cc2O)CC1 [Compound 48, 1-[(4,5-dichloro-2-hydroxyphenyl)methyl]-4-(hydroxymethyl)piperidin-4-ol] | < 30 µM | –
35 | < 10 µM | CC1(CO)CCN(Cc2cc(Cl)c(Cl)cc2O)CC1 [Compound 53, 4,5-dichloro-2-[[4-(hydroxymethyl)-4-methylpiperidin-1-yl]methyl] phenol] | < 30 µM | –
36 | < 1 µM | NCC1CCN(Cc2cc(Cl)c(Cl)cc2O)CC1 [Compound 61, 2-((4-(aminomethyl)piperidin-1-yl)methyl)-4,5-dichlorophenol] | < 30 µM | –
37 | < 10 µM | CS(=O)(=O)C1CCN(Cc2cc(Cl)c(Cl)cc2O)CC1 [Compound 41, 4,5-dichloro-2-((4-(methylsulfonyl)piperidin-1-yl)methyl)phenol] | – | –
38 | < 10 µM | CN(C)C(=O)C1CCN(Cc2cc(Cl)c(Cl)cc2O)CC1 [Compound 66, 1-(4,5-dichloro-2-hydroxybenzyl)-N,N-dimethylpiperidine-4-carboxamide] | < 30 µM | –
39 | < 1 µM | O=C(C1CCN(Cc2cc(Br)c(Br)cc2O)CC1)N1CCCC1 [Compound 63, (1-(4,5-dibromo-2-hydroxybenzyl)piperidin-4-yl)(pyrrolidin-1-yl)methanone] | < 30 µM | –
40 | < 10 µM | O=C1CCC2(CCN1)CCN(Cc1cc(Cl)c(Cl)cc1O)CC2 [Compound 59, 3-(4,5-dichloro-2-hydroxybenzyl)-3,9-diazaspiro[5.6]dodecan-10-one] | – | –
41 | < 10 µM | CC(c1cc(Cl)c(Cl)cc1O)N1CCC(CO)CC1 (stereo not drawn) [Compound 46, 4,5-dichloro-2-[1-[4-(hydroxymethyl)piperidin-1-yl]ethyl]phenol] | – | –
42 | < 10 µM | OCC1CN(Cc2cc(Cl)c(Cl)cc2O)CCN1 (stereo not drawn) [Compound 47, 4,5-dichloro-2-((3-(hydroxymethyl)piperazin-1-yl)methyl)phenol] | – | –
